Data taken from patent publication US20260224512A1, “USE OF 5-METHOXY-2-AMINOINDAN ("MEAI") IN METHODS FOR TREATING METABOLIC SYNDROME” (Clearmind Labs Corp., priority 2022, published 2026).

Tests used:
C57BL/6 mice [1] = assay: Sucrose preference test; assay type: in vivo; conditions: single dose 40 mg/kg
Procedure: Sucrose Preference Test. Thirteen-week-old male C57BL/6 mice maintained on a STD and housed individually were habituated to two water bottles in their home cage for 48 h prior to the test. Baseline intake was measured by weighing the bottles. On the test day (Day 1), 2 h before the onset of the dark phase, fresh water and a 1.5% sucrose solution were added to the bottles, and mice were subsequently treated orally with MEAI (40 mg/kg, N=8) or sterile water (N=8). The mice were allowed to drink from either bottle freely for 24 h, after which the bottles were weighed to measure consumption. The study was repeated for an additional day (Day 2), with the bottles switched in position (in the cage) to account for side preference. The sucrose and water intake over the two days were averaged, and the sucrose preference index was calculated as the average consumed sucrose solution divided by the average volume of total consumed liquid (average water plus average sucrose solution).

DIO mouse model [2] = assay: Glucose tolerance test (ipGTT), insulin tolerance test (ipITT) and glycemic parameters in DIO mice; assay type: in vivo; conditions: 40 mg/kg/day
Procedure: (§1) Effect of MEAI on Obesity. Male C57BL/6 mice were used to establish DIO by feeding them a high-fat diet (HFD; 60% Kcal fat, 20% Kcal protein, and 20% Kcal carbohydrates; Research Diet, D12492) for 18 weeks. After this period, mice were treated with either vehicle (sterile water, N=8) or MEAI (N=11) daily for 28 days by gavage at a dose of 40 mg/kg/day. Age-matched control mice (N=10) on a standard diet (STD; 14% Kcal fat, 24% Kcal protein, 62% Kcal carbohydrates; NIH-31 rodent diet) and received vehicle daily. The body weight of all mice was monitored daily, and total body fat and lean mass were determined by EchoMRI-100H™ (Echo Medical Systems LLC, Houston, TX, USA). On Day 29, at the end of the experimental period, mice were euthanized by a cervical dislocation under anesthesia. The kidneys, brain, liver, and fat pads were removed and weighed, and samples were either snap-frozen or fixed in buffered 4% formalin. Trunk blood was collected to determine biochemical parameters.
Glucose Tolerance Test (ipGTT) and the Insulin Tolerance Test (ipITT). On day 25 of the experiment, mice were subjected to an overnight fasting and then injected with glucose (1.5 g/kg i.p.) on the following day (day 26). Blood glucose levels were determined at 0, 15, 30, 45, 60, 90, and 120 min after injection using the Contour® glucometer (Bayer, Pittsburgh, PA, USA). The mice were then fasted for 6 h on the next day (day 27) before being administered insulin (0.75 U/kg, i.p.; Actrapid vials, Novo Nordisk A/S, Bagsværd, Denmark). Blood glucose levels were determined at the same intervals as described above. To assess insulin resistance, the homeostasis model assessment insulin resistance (HOMA-IR) was calculated as fasting serum insulin ([μU/mL]×fasting plasma glucose [mmol/L]/22.5). The relative insulin sensitivity index (ISI) was calculated as 1/(glucose×insulin)×1000, with glucose expressed as mg/dl and insulin as mU/L.
(§2) Blood and urine biochemistry. Serum levels of alanine aminotransferase (ALT), aspartate aminotransferase (AST), alkaline phosphatase (ALP), cholesterol, triglycerides, high-density lipoprotein (HDL), and low-density lipoprotein (LDL) were determined by using the Cobas C-111 chemistry analyzer (Roche, Switzerland). Blood urea nitrogen (BUN) was calculated based on serum urea levels as follows: BUN (mg/dL)=Urea (mg/dL)/2.1428. Fasting blood glucose was measured using the Contour® glucometer (Bayer, Pittsburgh, PA). Serum insulin was determined using an Ultra-Sensitive Mouse Insulin ELISA kit (Crystal Chem, Inc., Elk Grove Village, IL, USA).

DIO mouse model [3] = assay: Kidney and liver weight in DIO mice; assay type: in vivo; conditions: 40 mg/kg/day, HFD-fed mice
Procedure: as §1

C57BL/6 mice [4] = assay: Acute multi-parameter metabolic assessment (food and water intake, respirometry); assay type: in vivo
Procedure: (§3) Male 6-week-old C57BL/6 mice (Envigo, Israel) were maintained under a 12-h light/dark cycle and fed ad libitum. A total of 32 animals were divided into four experimental groups (N=8 mice per group) receiving single doses of 40, 60, or 100 mg/kg of MEAI or vehicle (sterile water), which was administered via oral gavage two hours prior to the dark phase. The animals were monitored for 48 hours post-dose for drug tolerability, food and water intakes as well as activity and metabolic parameters. At the end of the experiment, the animals were euthanized, and tissues (brain, liver, fat, and kidney) and blood were collected and stored frozen for future analyses. To generate diet-induced obesity, C57BI6/J mice were fed either a high-fat diet (HFD) (60% of calories from fat, 20% from protein, and 20% from carbohydrates; Research Diet, D12492) or a standard laboratory diet (STD, 14% fat, 24% protein, 62% carbohydrates; NIH-31 rodent diet) for 18 weeks.
(§4) Multi-parameter metabolic assessment. The metabolic profiles and food and water intakes of the mice were assessed by using the Promethion High-Definition Behavioral Phenotyping System (Sable Instruments, Inc., Las Vegas, NV, USA). Data acquisition and instrument control were performed using MetaScreen software version 2.2.18.0, and the obtained raw data were processed using ExpeData version 1.8.4 using an analysis script detailing all aspects of data transformation. Mice with free access to food and water were subjected to a standard 12 h light/12 h dark cycle, which consisted of a 48 h acclimation period followed by 24 h of sampling. Respiratory gases were measured by using the GA-3 gas analyzer (Sable Systems, Inc., Las Vegas, NV, USA) using a pull-mode, negative pressure system. Air flow was measured and controlled by FR-8 (Sable Systems, Inc., Las Vegas, NV, USA), with a set flow rate of 2000 mL/min. Water vapor was continuously measured and its dilution effect on O2 and CO2 was mathematically compensated. Respiratory exchange rate (RER) was calculated as the ratio of CO2 produced (VCO2) to O2 consumed (VO2) using Equation (1): […]
(§5) Total energy expenditure (TEE) was calculated using VO2 and RER, according to Equation (2): […]
(§6) Fat oxidation (FO) and carbohydrate oxidation (CHO) were calculated using VO2 and VCO2 based on Equations (3) and (4), respectively: […]

C57BL/6 mice [5] = assay: Acute single-dose tolerability of MEAI; assay type: in vivo
Procedure: as §3

DIO mouse model [6] = assay: Chronic MEAI in DIO model: wheel running and locomotive activity; assay type: in vivo, mice; conditions: 40 mg/kg/day
Procedure: as §1
(§7) Wheel running and locomotive activity. The assessment of wheel running and locomotor activity was performed using the Promethion High-Definition Behavioral Phenotyping System (Sable Instruments, Inc., Las Vegas, NV, USA). Wheel revolutions were measured with a monitor that recorded voluntary wheel running activity, and locomotor activity was quantified using disruptions of infrared XYZ beam arrays, with a beam spacing of 0.25 cm.

DIO mouse model [7] = assay: Chronic MEAI in HFD-induced obesity (DIO) model: body weight and body composition; assay type: in vivo, mice; conditions: 28 days
Procedure: as §1

C57BL/6 mice [8] = assay: Acute wheel running and locomotive activity; assay type: in vivo
Procedure: as §3, §7

DIO mouse model [9] = assay: Blood biochemistry in DIO mice; assay type: in vivo; conditions: 40 mg/kg/day
Procedure: as §1, §2

DIO mouse model [10] = assay: Chronic MEAI in DIO model: food consumption and energy metabolism; assay type: in vivo, mice; conditions: 40 mg/kg/day
Procedure: as §1, §4, §5, §6

DIO mouse model [11] = assay: Hepatic triglyceride and cholesterol content, Oil Red O staining in DIO mice; assay type: in vivo; conditions: 40 mg/kg/day
Procedure: as §1
Hepatic Triglyceride and Cholesterol Content. Liver tissue was extracted as described in (Tam et al., 2012), and its cholesterol and triglycerides contents were determined using a Cobas C-111 chemistry analyzer (Roche, Switzerland).
Histopathology. First, 5 μm paraffin-embedded liver sections from 5 animals per group were stained with hematoxylin-eosin staining. Liver images were captured using a Zeiss Axio Scope A1 light microscope (Carl Zeiss AG, Jena, Germany equipped with a Zeiss AxioCam ICc5 color camera. Ten random 40× fields of view were taken from each animal to obtained representative images.
Oil Red O staining. Liver cryosections (8 μm) were stained with Oil Red O (Cat #ab150678; Abcam) following the manufacturer's protocol. Images were acquired as described above. For quantitative analysis of Oil Red O staining, the area of lipid droplets in the liver cryosections was measured using the ImageJ software.

[12] = single dose 40, 60, 100 mg/kg, 24-hour period
[13] = single dose, 60 and 100 mg doses
[14] = in comparison with HFD-vehicle group
[15] = single dose, 40 mg/kg and above
[16] = compared to HFD vehicle-treated group
[17] = compared to HFD vehicle control

With `COc1ccc2c(c1)CC(N)C2` (stereo not shown) [MEAI, 5-methoxy-2-aminoindan] the water intake levels (C57BL/6 mice [1]) was “without any accompanying decrease”, the “acute preference for sucrose solution” value (C57BL/6 mice [1]; 1.5% sucrose vs water, most evident in initial 24-hour period) was “significantly reduced” and the “preference for sucrose solution” value (C57BL/6 mice [1]; subsequent 24-hour period) was “slight reduction”. The HOMA-IR (DIO mouse model [2]) was “beneficial effects”, the fasting blood glucose (DIO mouse model [2]) was “reduced” and the “glucose metabolism (glucose and insulin tolerance tests)” value (DIO mouse model [2]) was “significant improvement”. The insulin levels (DIO mouse model [2]) was “reduced”, the “insulin sensitivity (insulin tolerance test)” value (DIO mouse model [2]) was “normalized” and the “insulin sensitivity index (ISI)” value (DIO mouse model [2]) was “beneficial effects”. The kidney-to-body weight ratio (DIO mouse model [3]) was “normalized”, the liver weight (DIO mouse model [3]) was “reduced” and the “liver weight to body weight ratio” value (DIO mouse model [3]) was “normalized”. For the same compound, the “carbohydrate oxidation (CHO) rate” value (C57BL/6 mice [4]; [12]) was “corresponding elevations”, the “fat oxidation (FO) rate” value (C57BL/6 mice [4]; [12]) was “corresponding elevations” and the “total energy expenditure (TEE)” value (C57BL/6 mice [4]; [12]) was “significant dose-dependent increases”. For the same compound, the “rate of carbon dioxide emission (VCO2)” value (C57BL/6 mice [4]; [13]) was “higher rates”, the “rate of oxygen consumption (VO2)” value (C57BL/6 mice [4]; [13]) was “higher rates” and the “respiratory exchange rate (RER)” value (C57BL/6 mice [4]; single dose, light phase, 60 and 100 mg doses) was “increase”. The water consumption (C57BL/6 mice [4]; single oral dose 40, 60 or 100 mg/kg) was “no notable changes”, the “feeding patterns (food intake)” value (C57BL/6 mice [4]; single oral dose 40, 60 or 100 mg/kg, dark and light phases, vs vehicle) was “did not reach statistical significance” and the deaths after administration (C57BL/6 mice [5]; single oral dose 100 mg/kg, within a few hours, with stress of metabolic testing) was “two subjects in the 100 mg/kg group died”. For the same compound, the “drug tolerability, changes in behavior” value (C57BL/6 mice [5]; single oral dose 40 and 60 mg/kg, lean mice) was “well-tolerated, with no observable changes in behavior”, the “pedestrian locomotive activity, speed and total distance relative to STD-vehicle group (over-stimulatory effect)” value (DIO mouse model [6]; HFD-fed mice) was “did not surpass the levels of the STD-vehicle treated group” and the “time spent engaging in various activities within the cage” value (DIO mouse model [6]; HFD-fed mice) was “preference for voluntary activities”. The voluntary wheel running (DIO mouse model [6]; HFD-fed mice) was “increased capability”, the “voluntary actions such as pedestrian activity and grooming (ambulatory activity)” value (DIO mouse model [6]; HFD-fed mice, throughout the day, more prominent in dark phase) was “significantly increased” and the pedestrian locomotion speed (DIO mouse model [6]; [14]) was “increased”. The pedestrian locomotive activity (DIO mouse model [6]; [14]) was “increased”, the total distance travelled (DIO mouse model [6]; [14]) was “increased” and the “body weight of HFD-fed mice” value (DIO mouse model [7]; 40 mg/kg/day by gavage) was “significantly reduced”. The “decrease in total body weight compared to the obese vehicle-treated group” value (DIO mouse model [7]; 40 mg/kg/day by gavage, HFD-fed mice) was about 15%, the “adiposity associated with obesity” value (DIO mouse model [7]; 40 mg/kg/day, HFD-fed mice) was “reduced” and the “lean body mass, lean body mass ratio, net lean mass” value (DIO mouse model [7]; 40 mg/kg/day, HFD-fed mice) was “preserved”. For the same compound, the overall fat mass (DIO mouse model [7]; 40 mg/kg/day, HFD-fed mice) was “reducing”, the voluntary wheel running (C57BL/6 mice [8]; single dose 100 mg/kg) was “significant suppression” and the “total number of beam breaks (ambulatory and fine movements)” value (C57BL/6 mice [8]; single dose 40, 60, 100 mg/kg) was “no significant changes”. The voluntary wheel running (C57BL/6 mice [8]; single dose 40 and 60 mg/kg) was “minor elevations”, the “directed voluntary activity (pedestrian locomotion)” value (C57BL/6 mice [8]; [15]) was “significant and dose-dependent increase” and the pedestrian speed (C57BL/6 mice [8]; [15]) was “significant and dose-dependent increase”. The total pedometer count (C57BL/6 mice [8]; single dose, all doses tested (40, 60, 100 mg/kg)) was “increase”, the HDL-to-LDL ratio (DIO mouse model [9]; HFD-fed mice) was “increased” and the “blood urea nitrogen (BUN) levels” value (DIO mouse model [9]; HFD-fed mice) was “slight improvements”. The cholesterol levels (DIO mouse model [9]; HFD-fed mice, not statistically significant) was “tendency towards decreased”, the circulating triglyceride levels (DIO mouse model [9]; any of the study groups) was “no significant alterations” and the HDL levels (DIO mouse model [9]; compared to HFD vehicle group) was “without notable changes”. The LDL levels (DIO mouse model [9]; compared to HFD vehicle group) was “significantly reduced”, the ALP levels (DIO mouse model [9]; compared to HFD-vehicle group) was “significantly reduced” and the ALT levels (DIO mouse model [9]; compared to HFD-vehicle group) was “did not significantly alter”. The AST levels (DIO mouse model [9]; compared to HFD-vehicle group) was “did not significantly alter”, the “carbohydrate oxidation (CHO)” value (DIO mouse model [10]; HFD-fed mice) was “no effect of the drug itself” and the “respiratory exchange rate (RER)” value (DIO mouse model [10]; HFD-fed mice, in comparison to STD vehicle group) was “slightly decreased”. For the same compound, the “food intake per meal” value (DIO mouse model [10]; HFD-fed mice, both MEAI and vehicle HFD groups) was “reduction in food intake per meal”, the carbon dioxide production (DIO mouse model [10]; [16]) was “slightly increased” and the oxygen consumption (DIO mouse model [10]; [16]) was “slightly increased”. For the same compound, the energy expenditure (DIO mouse model [10]; compared to both HFD and STD vehicle groups, light and dark phases) was “significant increase”, the “overall rate of fat oxidation (FO)” value (DIO mouse model [10]; compared to both HFD- and STD-vehicle groups) was “increase” and the water intake (DIO mouse model [10]; obese mice) was “did not have any effect”. For the same compound, the hepatic cholesterol levels (DIO mouse model [11]; [17]) was “trend toward a reduction”, the liver triglycerides (DIO mouse model [11]; [17]) was “significant reductions” and the “Oil Red O staining” value (DIO mouse model [11]; [16]) was “decrease”. The lipid vacuole numbers (DIO mouse model [11]; [16]) was “reduced”.
